Results published in patent publication US7109240B2, “Non-hazardous pest control” (Ecosmart Technologies, Inc., priority 1993, dated 2006).

Tests used:
German cockroaches [1] = test: Knockdown of cockroaches continuously confined to calcium carbonate + 5% neurally effective substance; format: in vivo, Blattella, germanica; conditions: for insecticidal activity (in words): 5% (wt/wt) in calcium carbonate, or dust alone; for KT50 / KT90 / KT90, Hours: 5% (wt/wt) ingredient in calcium carbonate, or dust alone, 1.2 cc, 78 ± 4° F., 55 ± 6% rh
Protocol: (§1) Continuous exposure tests.—The intrinsic insecticidal activity of the insecticide dust against B. germanica was determined by exposing cockroaches to fresh and aged deposits of the dust. Replicated groups of three to ten adult cockroaches from culture were confined to deposits of the dust, and its speed of action in terms of knockdown (KD) and paralysis was determined. Adult male cockroaches from culture were placed directly onto fairly heavy deposits of dust (1 to 1.2 cc) spread evenly on filter paper in covered 9-cm-diameter petri dishes. The time for irreversible KD to occur (KT) was determined from periodic, irregular observation. The insects were considered KD when they were on their back, or could be turned over, and could not right themselves within at least two minutes. […] Comparison of KD activity was made with some commercial dust formulations including a non-fluorinated silica aerogel (SG-68), Drione™ (a fluorinated silica aerogel+pyrethrins), and a commercial diatomaceous earth (Celite™) applied and tested in the same manner.
(§2) The beads were screened out of the resultant mix. Exactly 1.2 cc of dust or dust was spread onto Whatman filter paper in 9-cm-diam petri dishes and the knockdown (KD) of cockroaches confined to the dust mix was determined by periodically observing KD.

German cockroaches [2] = conditions: choice box; repellency measure
Protocol: Choice box tests.—The activity and repellency of the present insecticide dust in a choice test was determined with standard two-compartment choice boxes.
Choice boxes are 30.5 cm square, 10 cm tall wooden boxes, with a tempered masonite floor. A vertical partition panel separates the box into two equal-sized compartments. A 1.3 cm hole at the top center of the partition panel allows cockroaches to move from one compartment to the other. Transparent sheet plexiglass (0.3 cm thick) taped to the top retains cockroaches in the box and allows observation of live and dead in each compartment. A piece of masonite keeps one compartment dark (dark compartment). […]
Five boxes were used for each treatment and the untreated control. […] Cockroaches prefer to aggregate in the dark, and they will normally readily move from the light compartment to the dark compartment of untreated choice boxes within a day or two. […] The number dead and alive in each compartment of each box was recorded every few days. […]
The mortality produced in choice boxes, and the position of cockroaches in relation to the treatment, provides a measure of the likely ultimate efficacy of a treatment when used under actual field conditions. […] On the other hand, slow-acting insecticides such as boric acid are effective in choice box tests because cockroaches readily walk on those deposits and are eventually killed by them.

German cockroaches [3] = test: Phenol vs. terpineol in calcium carbonate: knockdown of cockroaches; format: in vivo, Blattella, germanica
Protocol: as §2
A further test was conducted to compare the effectiveness of phenol vs. terpineol as a neurally effective substance.

[4] = test system: adult male German cockroaches; test: Control test: knockdown of cockroaches continuously confined to deposits of the solid dust components; format: in vivo, Blattella, germanica; conditions: continuously confined to dust deposit; 76° F., 55% relative humidity
Protocol: as §1
A control test was conducted using only the solid components of the embodiment.

[5] = 0.32 % (wt/wt) in calcium carbonate
[6] = 0.63 % (wt/wt) in calcium carbonate
[7] = 1.25 % (wt/wt) in calcium carbonate
[8] = 2.5 % (wt/wt) in calcium carbonate
[9] = 5.0 % (wt/wt) in calcium carbonate

SMILES: CCCCC/C(C=O)=C/c1ccccc1 [Amyl cinnamic aldehyde, 5%, Amyl cinnamic aldehyde]
- insecticidal activity (in words) (German cockroaches [1]): much slower, about as active as diatomaceous earth
- KT50 (German cockroaches [1]): 9.4 h
- KT90 (German cockroaches [1]): 15.5 h

SMILES: CC(=O)OCc1ccccc1 [Benzyl acetate]
- insecticidal activity (in words) (German cockroaches [1]): most active
- KT50 (German cockroaches [1]): 0.7 h
- KT90 (German cockroaches [1]): 1.0 h
- KT90, Hours (German cockroaches [1]; listed as benzyl acetate): about one hour or so

SMILES: OB(O)O [Boric acid, tech., Boric acid]
- % of live in light on day 1 (German cockroaches [2]): 13%
- % of live in light on day 7 (German cockroaches [2]): 100%

SMILES: O=C([O-])[O-].[Ca+2] [Calcium carbonate (CaCO3), Calcium carbonate]
- insecticidal activity (in words) (German cockroaches [1]): not insecticidal
- % KD at 24 h (German cockroaches [1]; dust alone): (1.3% KD at 24 h)

SMILES: CCOC(=O)c1ccccc1C(=O)OCC [Diethyl phthalate]
- insecticidal activity (in words) (German cockroaches [1]): not insecticidal

SMILES: Oc1ccccc1 [Phenol]
- KT-50 (German cockroaches [3]; [5]): 16.5 h
- KT-90 (German cockroaches [3]; [5]): 24.0 h
- KT-50 (German cockroaches [3]; [6]): 7.5 h
- KT-90 (German cockroaches [3]; [6]): 20.3 h
- KT-50 (German cockroaches [3]; [7]): 0.4 h
- KT-90 (German cockroaches [3]; [7]): 1.5 h
- KT-50 (German cockroaches [3]; [8]): 0.2 h
- KT-90 (German cockroaches [3]; [8]): 0.4 h
- KT-50 (German cockroaches [3]; [9]): <0.1 h
- KT-90 (German cockroaches [3]; [9]): 0.1 h
- insecticidal activity (in words) (German cockroaches [3]; in CaCO3, every rate tested): more insecticidal than terpineol

SMILES: OCCc1ccccc1 [Phenyl ethyl alcohol]
- insecticidal activity (in words) (German cockroaches [1]): most active
- KT50 (German cockroaches [1]): 0.7 h
- KT90 (German cockroaches [1]): 1.0 h
- KT90, Hours (German cockroaches [1]; listed as phenyl ethyl alcohol): about one hour or so

SMILES: O=C([O-])O.[Na+] [Sodium bicarbonate (NaHCO3), Sodium bicarbonate]
- KT50 [4]: 16.5 h
- KT90 [4]: 20.9 h
- KT50 (German cockroaches [1]): 9.7 h
- KT90 (German cockroaches [1]): 16.0 h
